What was measured:
[1] = biological target: murine Vα14/Vβ8 iNKT‐cell TCR (Mus musculus, UniProt P11609+Z9CWY5XBV8); test: SPR binding of soluble murine iNKT‐cell TCR to mCD1d/lipid complexes; conditions: for Kd: SPR equilibrium binding, mCD1d loaded with lipid, read-out: K d, murine iNKT‐cell TCR binding to mCD1d/lipid complex
Text: In order to extend the analysis of the ability of ThrCer analogs to activate iNKT‐cells in vivo, we assessed their ability to promote a response in a murine model. First, we performed binding assays using in vitro‐loaded murine recombinant CD1d (mCD1d) molecules and in vitro‐refolded murine Vα14/Vβ8 iNKT‐cell TCR.
(§1) Soluble human invariant TCR was generated as previously described 34 where both the Vα24 and Vβ11 chains were individually overexpressed in Escherichia coli, purified from the inclusion bodies, then refolded, and purified to generate the TCR heterodimers, according to Boulter et al. 43. The murine TCR was generated according to Pellici et al. as a chimeric molecule (with variable murine regions and human constant regions) 44. The hybrid alpha chains and beta chains were individually expressed in E. coli and purified from the inclusion bodies, then refolded as above.
(§2) SPR experiments were performed with a BIAcore 3000 to measure the affinity and kinetics of iNKT‐cell TCR binding to human CD1d–ligand complexes. In brief, approximately 1000 RU of the biotinylated hCD1d–lipid complexes were immobilized onto streptavidin‐coated CM5 sensor chips (BIAcore). Aliquots of purified TCR with increasing concentrations were passed over immobilized hCD1d–lipid complex at a flow rate of 10 μL/min for the equilibrium‐binding experiments or 50 μL/min for the kinetics experiments. The dissociation constants, K d, were calculated by fitting the data from the equilibrium‐binding experiment to a non‐linear regression saturation binding model (GraphPad Prism 5.0), whereas the k off data were estimated from the kinetics experiments by fitting the data with the built‐in models of the BIAeval3.1 software (BIAcore).

[2] = biological target: human iNKT‐cell TCR (Homo sapiens, UniProt A0A0B4J240+P15813); test: SPR (BIAcore) binding of soluble human iNKT‐cell TCR to hCD1d/lipid complexes; conditions: for Kd: SPR equilibrium binding, hCD1d refolded with lipid, read-out: K d, human iNKT‐cell TCR binding to hCD1d/lipid complex; for koff: SPR kinetics experiment, read-out: k off, human iNKT‐cell TCR from hCD1d/lipid complex
Chain of human iNKT‐cell TCR (P01848 1-93): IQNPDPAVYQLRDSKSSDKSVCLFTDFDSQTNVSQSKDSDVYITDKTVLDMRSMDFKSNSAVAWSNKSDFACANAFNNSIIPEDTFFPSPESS
Chain of human iNKT‐cell TCR (P61769 21-119, further chain): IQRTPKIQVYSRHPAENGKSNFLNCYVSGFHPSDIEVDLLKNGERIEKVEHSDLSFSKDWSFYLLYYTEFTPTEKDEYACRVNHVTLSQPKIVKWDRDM
Chain of human iNKT‐cell TCR (A0A0B4J240 22-114): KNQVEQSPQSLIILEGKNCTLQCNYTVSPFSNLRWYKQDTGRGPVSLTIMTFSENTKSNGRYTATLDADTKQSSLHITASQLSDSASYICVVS
Chain of human iNKT‐cell TCR (P01850 1-129, further chain): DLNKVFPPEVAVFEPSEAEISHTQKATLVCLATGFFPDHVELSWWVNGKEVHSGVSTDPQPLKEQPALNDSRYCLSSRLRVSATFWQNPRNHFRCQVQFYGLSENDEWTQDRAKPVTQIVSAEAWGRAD
Chain of human iNKT‐cell TCR (P15813 20-301): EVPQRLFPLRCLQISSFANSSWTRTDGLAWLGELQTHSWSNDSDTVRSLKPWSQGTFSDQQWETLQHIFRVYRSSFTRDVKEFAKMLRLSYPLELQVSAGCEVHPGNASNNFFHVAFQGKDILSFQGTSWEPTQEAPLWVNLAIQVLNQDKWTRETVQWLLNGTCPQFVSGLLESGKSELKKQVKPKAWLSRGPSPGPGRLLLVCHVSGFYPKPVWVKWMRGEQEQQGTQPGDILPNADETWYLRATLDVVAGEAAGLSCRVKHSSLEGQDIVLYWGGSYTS
Method: Two analogs of ThrCer, ThrCer 6, and ThrCer 7 were synthesized. […] We first carried out measurements to assess the binding affinity of these ThrCer analogs to human iNKT‐cell TCR (Fig. 1B). Recombinant human CD1d (hCD1d) molecules were refolded in vitro with ThrCer 6 and ThrCer 7 separately and coupled to BIAcore chips, over which refolded human iNKT‐cell TCR was injected at different concentrations 34. […] Importantly, these findings were consistent with data obtained using tetrameric human iNKT‐cell TCRs as a staining reagent to identify lipid/CD1d complexes on the surface of C1R cells that had been transfected with hCD1d cDNA (hCD1d C1R cells) and subsequently loaded with the different lipids 34 (Fig. 1C).
as §1, §2

[3] = tested on: EG7 cells (OVA‐expressing EL4); test: Injection of OVA plus iNKT‐cell agonist in EG7 tumor‐bearing mice; type: in vivo; conditions: 1 μg lipid i.v. with OVA, 4 days after EG7 s.c.; for OVA‐specific CD8+ T cells in blood (tetramer) in tumor‐bearing mice: bled 7 days later
Method: To test the functional consequences of iNKT‐cell‐induced DC maturation (Fig. 1E and Supporting Information Fig. 1) and to assess whether iNKT‐cell activation mediated by the injection of either ThrCer 6 or ThrCer 7 could lead to cross‐presentation of peptides derived from soluble antigenic proteins, mice were injected with the tumor cell line EL4 encoding the full‐length OVA and then 4 days later were immunized i.v. with full‐length OVA together with 1 μg of non‐glycosidic iNKT‐cell agonists. As a control, mice were injected with α‐GalCer with full‐length OVA. Seven days later, OVA‐specific CD8^+ T‐cells were detected in the blood by H‐2 K^b/OVA257–264 tetramer staining of CD8^+ T cells.
Figure 4 Injection of ThrCer 6 with OVA into tumor‐bearing mice results in tumor regression. Mice (n = 4–6) were injected s.c. with OVA‐expressing EL4 cells (EG7 cells). Four days later mice were injected i.v. with OVA protein together with either vehicle or 1 μg of the indicated iNKT‐cell agonist. (A) Seven days later mice were bled and the number of H‐2K^b 257‐264 tetramer^+ cells was assessed by FACS analysis. (B) The size of the tumor was subsequently measured regularly using calipers and expressed as surface area. The arrow indicates the timing of the injection of soluble OVA plus iNKT‐cell agonists. (A and B) Data are shown as mean ± SEM and are representative of two independent experiments.
Mice (n = 4–6) were injected subcutaneously (s.c.) with 1 × 10^6 EG7 cells (a derivative of the thymoma EL4, expressing the OVA protein). Four days later mice were injected i.v. with 800 μg OVA together with either vehicle or 1 μg of the indicated iNKT‐cell agonist. Seven days later mice were bled and the number of H‐2K^b 257–264 tetramer^+ cells was assessed by FACS analysis. The size of the tumor was subsequently measured regularly using calipers and expressed as surface area.

Chain of murine Vα14/Vβ8 iNKT‐cell TCR (P11609 whole entry, looked up, other chains not shown): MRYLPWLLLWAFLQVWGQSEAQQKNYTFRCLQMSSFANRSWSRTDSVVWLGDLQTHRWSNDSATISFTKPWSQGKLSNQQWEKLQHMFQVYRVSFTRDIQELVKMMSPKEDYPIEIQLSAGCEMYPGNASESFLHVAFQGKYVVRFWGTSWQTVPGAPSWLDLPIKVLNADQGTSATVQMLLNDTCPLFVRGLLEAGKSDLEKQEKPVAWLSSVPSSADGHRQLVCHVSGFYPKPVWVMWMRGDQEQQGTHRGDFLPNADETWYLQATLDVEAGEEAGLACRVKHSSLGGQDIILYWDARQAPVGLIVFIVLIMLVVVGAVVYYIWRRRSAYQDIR

Row | Structure (SMILES) | Koff, murine iNKT‐cell TCR from mCD1d/lipid complex [1] [S^-1] | Kon, murine iNKT‐cell TCR to mCD1d/lipid complex [1] | Kd [1] [µM] | Kd [2] [µM] | koff [2] [s⁻¹] | Rejection of OVA‐expressing implanted tumors [3] | OVA‐specific CD8+ T cells in blood (tetramer) in tumor‐bearing mice [3]
1 | CCCCCCCCCCCCCCCCCCCCCCCCCC(=O)N[C@@H](CO[C@H]1CC[C@H](O)[C@H](O)[C@H]1O)[C@H](O)[C@H](O)CCCCCCCCCCCCCC [ThrCer 6] | 0.050 | 3.47 x10^4 M^-1 S^-1 | 1.44 ± 0.13 | 0.61 ± 0.1 | 0.165 | rejected | peptide‐specific response
2 | CCCCCCCCCCCCCCCCCCCCCCCCCC(=O)NC(COC1CCCC(O)C(O)C1O)C(O)C(O)CCCCCCCCCCCCCC (stereo not shown) [ThrCer 7] | 0.214 | 8.39 x10^4 M^-1 S^-1 | 2.55 ± 0.17 | 0.76 ± 0.08 | 0.142 |  | peptide‐specific response
3 | CCCCCCCCCCCCCCCCCCCCCCCCCC(=O)N[C@@H](CO[C@H]1O[C@H](CO)[C@H](O)[C@H](O)[C@H]1O)[C@H](O)[C@H](O)CCCCCCCCCCCCCC [α‐GalCer, α‐galactosylceramide, reference compound] | 0.059 | 3.93 x10^4 M^-1 S^-1 | 1.5 ± 0.16 | 1.12 ± 0.13 | 0.41 |  | peptide‐specific response

Reference: paper PMC4913735, “Non‐glycosidic compounds can stimulate both human and mouse iNKT cells” (European Journal of Immunology, 2016)
